PMC9551036, “A selective and orally bioavailable VHL-recruiting PROTAC achieves SMARCA2 degradation in vivo” (Nature Communications, 2022)
Several values for one entry are separate records, joined by “and”; a condition that tells them apart may be missing. Identical values can stand only once.

Tests used:
[1] = system: VCB: PROTAC: SMARCA4^BD ternary complex; assay: TR-FRET ternary complex affinity and cooperativity, SMARCA4; format: binding, human; details: ratio TR-FRET EC50 / TR-FRET EC50 +VCB measured in the same run, SMARCA4BD
PBRM1BD5 [2] = molecular target: T1, PBRM1BD5 (Homo sapiens, UniProt P40337+Q86U86); assay: TR-FRET ternary complex affinity and cooperativity, PBRM1; format: binding; details: TR-FRET competition for PBRM1BD5, + VCB; mean ± SD; read-out: TR-FRET Ternary PBRM1BD EC50 (PROTAC + VCB)
T1 construct: GST (TEV site) (N); His6 (TEV site) (N, cleaved yes); made in house; host or cells: PBRM1^BD5: Escherichia coli BL21(DE3)

PBRM1BD5 [3] = assay: as above; format: binding; details: ratio TR-FRET EC50 / TR-FRET EC50 +VCB measured in the same run, PBRM1BD5
SMARCA4 = SMARCA4 (Homo sapiens, UniProt P51532); assay: SMARCA4 capillary electrophoresis protein assay in RKO cells; format: cell-based; set-up: endogenous in cells; host or cells: RKO, HCT116, LU99, HCC-364, HCT-15, HCC4006, SK-N-AS
Experimental: (§1) 130,000–200,000 cells were seeded in 24-well plates and incubated until settled down or overnight. Compounds were dissolved in DMSO and added to cells in indicated concentrations using a digital dispenser following an optional media change. Cells were incubated for 4 or 18 h as indicated. For SMARCA2/4 half-life determination, 150,000 or 200,000 cells were seeded in 24-well plates. The next day, 50 µg/ml cycloheximide (Sigma) was added and cells were incubated for 1–24 h. For SMARCA2/4 re-synthesis measurements, 200,000 cells were seeded in 24-well plates. The next day, 100 nM compound 6 was added for 4 h to degrade SMARCA2/4, and a sample was taken as baseline for normalisation. To allow re-synthesis, a VHL binder (compound 32, 25 or 50 µM) was then added for 3 or 24 h. Medium was removed, cells were washed with PBS and lysed with 80 µl Lysis Buffer (MSD Tris Lysis Buffer (#R60TX-2) + Halt Inhibitor Cocktail (100x) + Benzonase 0.5 µL/ml). Samples were frozen at −80 °C and thawed at room temperature before use. Samples were transferred to a V-bottom plate and insoluble debris was pelleted by centrifugation for 5 min at maximum speed. The supernatant was transferred to a fresh plate. Master Mix and Ladder were prepared according to manufacturer’s instructions for 12–230 kDa Wes Separation Module, 8 × 25 capillary cartridges, Protein Simple #SM-W004 with Anti-Rabbit Detection Module for Wes, Peggy Sue or Sally Sue, Protein Simple #DM-001. 4.8 µl lysate were mixed with 1.2 µl Master Mix to achieve a protein concentration of ~0.5 µg/µl. Antibodies were diluted in Antibody Diluent II (SMARCA2 Sigma #HPA029981 RRID:AB_10602406 1:25–100, SMARCA4 Cell Signalling #49360 clone D1Q7F RRID:AB_2728743 1:15–120 or Abcam #ab110641 clone EPNCIR111A RRID:AB_10861578 1:60, GAPDH Abcam #ab9485 RRID:AB_307275 1:250). Wes plates were prepared and run according to manufacturer’s instructions. Proteins were quantified with accompanying Compass Software. SMARCA2/4 protein levels were normalised to GAPDH. […] Where applicable, curves were fitted using a 4-parametric logistic model.

SMARCA2 = SMARCA2 (Homo sapiens, UniProt P51531); assay: SMARCA2 capillary electrophoresis protein assay in RKO cells; format: cell-based; set-up: endogenous in cells; host or cells: RKO, NCI-H1568, A549, HCT116, LU99, HCC-364, HCT-15, HCC4006, SK-N-AS
Experimental: as §1, with “Cells were incubated for 4 or 18 h as indicated.” left out, “The next day, 50 µg/ml cycloheximide (Sigma) was added and cells were incubated for 1–24 h.” left out, “The next day, 100 nM compound 6 was added for 4 h to degrade SMARCA2/4, and a sample was taken as baseline for normalisation. To allow re-synthesis, a VHL binder (compound 32, 25 or 50 µM) was then added for 3 or 24 h.” left out, “Antibodies were diluted in Antibody Diluent II (SMARCA2 Sigma #HPA029981 RRID:AB_10602406 1:25–100, SMARCA4 Cell Signalling #49360 clone D1Q7F RRID:AB_2728743 1:15–120 or Abcam #ab110641 clone EPNCIR111A RRID:AB_10861578 1:60, GAPDH Abcam #ab9485 RRID:AB_307275 1:250).” left out

[4] = RKO cells, time not stated at the place (Supplementary Data 2)

T1 sequence (Q86U86 645-766): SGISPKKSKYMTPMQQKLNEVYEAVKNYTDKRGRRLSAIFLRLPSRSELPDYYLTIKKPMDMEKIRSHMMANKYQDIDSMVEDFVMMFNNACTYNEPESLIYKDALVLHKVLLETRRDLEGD
T1 sequence (P40337 54-213): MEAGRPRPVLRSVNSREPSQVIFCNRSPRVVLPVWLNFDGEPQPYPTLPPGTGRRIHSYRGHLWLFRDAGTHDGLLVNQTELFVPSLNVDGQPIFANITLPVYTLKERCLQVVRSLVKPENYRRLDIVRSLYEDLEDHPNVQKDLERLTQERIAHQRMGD
T1 sequence (Q15369 17-112 partner): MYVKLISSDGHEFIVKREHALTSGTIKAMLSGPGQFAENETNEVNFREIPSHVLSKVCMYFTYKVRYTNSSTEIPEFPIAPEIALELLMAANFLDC
T1 sequence (Q15370 1-104 partner): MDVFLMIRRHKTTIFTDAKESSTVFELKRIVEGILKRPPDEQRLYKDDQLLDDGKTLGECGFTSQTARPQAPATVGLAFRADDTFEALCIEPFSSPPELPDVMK
Chain of SMARCA4 (P51532 whole entry): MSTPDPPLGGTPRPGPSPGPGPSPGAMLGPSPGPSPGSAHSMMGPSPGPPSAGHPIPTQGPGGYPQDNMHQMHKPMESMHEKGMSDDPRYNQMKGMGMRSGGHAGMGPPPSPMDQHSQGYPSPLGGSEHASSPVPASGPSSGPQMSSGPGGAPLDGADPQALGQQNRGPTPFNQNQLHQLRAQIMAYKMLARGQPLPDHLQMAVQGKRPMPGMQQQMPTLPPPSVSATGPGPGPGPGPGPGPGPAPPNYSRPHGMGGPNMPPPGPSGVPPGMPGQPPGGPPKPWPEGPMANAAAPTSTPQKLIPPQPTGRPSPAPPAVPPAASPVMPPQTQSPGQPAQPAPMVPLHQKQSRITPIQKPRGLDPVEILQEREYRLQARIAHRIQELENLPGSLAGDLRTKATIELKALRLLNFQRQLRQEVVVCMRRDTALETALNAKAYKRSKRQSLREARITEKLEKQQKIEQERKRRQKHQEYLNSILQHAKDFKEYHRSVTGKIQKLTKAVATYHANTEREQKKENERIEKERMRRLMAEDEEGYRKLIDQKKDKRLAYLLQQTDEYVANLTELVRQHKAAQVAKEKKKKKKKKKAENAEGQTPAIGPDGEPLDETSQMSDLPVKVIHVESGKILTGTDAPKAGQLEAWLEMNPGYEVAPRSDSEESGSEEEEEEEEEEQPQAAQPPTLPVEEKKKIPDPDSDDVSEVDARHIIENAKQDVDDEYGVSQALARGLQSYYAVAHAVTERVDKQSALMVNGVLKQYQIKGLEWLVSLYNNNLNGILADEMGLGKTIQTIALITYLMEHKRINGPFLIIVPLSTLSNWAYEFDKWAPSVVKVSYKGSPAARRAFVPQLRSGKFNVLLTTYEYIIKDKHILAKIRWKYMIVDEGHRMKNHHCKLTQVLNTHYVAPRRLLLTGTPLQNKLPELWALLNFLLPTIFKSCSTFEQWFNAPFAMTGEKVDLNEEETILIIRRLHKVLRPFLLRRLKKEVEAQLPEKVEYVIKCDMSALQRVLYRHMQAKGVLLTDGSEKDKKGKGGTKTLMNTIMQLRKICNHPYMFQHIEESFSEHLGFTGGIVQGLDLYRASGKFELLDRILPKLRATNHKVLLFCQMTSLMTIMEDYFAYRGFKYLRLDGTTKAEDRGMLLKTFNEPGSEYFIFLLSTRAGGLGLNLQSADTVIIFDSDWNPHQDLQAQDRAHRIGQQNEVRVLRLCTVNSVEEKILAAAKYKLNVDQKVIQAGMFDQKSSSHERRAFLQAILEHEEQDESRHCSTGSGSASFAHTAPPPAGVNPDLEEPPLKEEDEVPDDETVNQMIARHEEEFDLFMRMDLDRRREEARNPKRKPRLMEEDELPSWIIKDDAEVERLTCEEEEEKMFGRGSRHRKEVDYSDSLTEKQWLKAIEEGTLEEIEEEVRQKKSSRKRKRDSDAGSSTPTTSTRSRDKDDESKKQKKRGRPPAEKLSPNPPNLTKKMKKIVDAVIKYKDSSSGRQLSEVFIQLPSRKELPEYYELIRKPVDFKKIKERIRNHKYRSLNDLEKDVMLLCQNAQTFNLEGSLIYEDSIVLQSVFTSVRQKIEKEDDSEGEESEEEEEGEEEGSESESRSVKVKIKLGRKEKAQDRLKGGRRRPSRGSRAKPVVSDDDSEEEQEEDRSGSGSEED
Chain of SMARCA2 (P51531 whole entry): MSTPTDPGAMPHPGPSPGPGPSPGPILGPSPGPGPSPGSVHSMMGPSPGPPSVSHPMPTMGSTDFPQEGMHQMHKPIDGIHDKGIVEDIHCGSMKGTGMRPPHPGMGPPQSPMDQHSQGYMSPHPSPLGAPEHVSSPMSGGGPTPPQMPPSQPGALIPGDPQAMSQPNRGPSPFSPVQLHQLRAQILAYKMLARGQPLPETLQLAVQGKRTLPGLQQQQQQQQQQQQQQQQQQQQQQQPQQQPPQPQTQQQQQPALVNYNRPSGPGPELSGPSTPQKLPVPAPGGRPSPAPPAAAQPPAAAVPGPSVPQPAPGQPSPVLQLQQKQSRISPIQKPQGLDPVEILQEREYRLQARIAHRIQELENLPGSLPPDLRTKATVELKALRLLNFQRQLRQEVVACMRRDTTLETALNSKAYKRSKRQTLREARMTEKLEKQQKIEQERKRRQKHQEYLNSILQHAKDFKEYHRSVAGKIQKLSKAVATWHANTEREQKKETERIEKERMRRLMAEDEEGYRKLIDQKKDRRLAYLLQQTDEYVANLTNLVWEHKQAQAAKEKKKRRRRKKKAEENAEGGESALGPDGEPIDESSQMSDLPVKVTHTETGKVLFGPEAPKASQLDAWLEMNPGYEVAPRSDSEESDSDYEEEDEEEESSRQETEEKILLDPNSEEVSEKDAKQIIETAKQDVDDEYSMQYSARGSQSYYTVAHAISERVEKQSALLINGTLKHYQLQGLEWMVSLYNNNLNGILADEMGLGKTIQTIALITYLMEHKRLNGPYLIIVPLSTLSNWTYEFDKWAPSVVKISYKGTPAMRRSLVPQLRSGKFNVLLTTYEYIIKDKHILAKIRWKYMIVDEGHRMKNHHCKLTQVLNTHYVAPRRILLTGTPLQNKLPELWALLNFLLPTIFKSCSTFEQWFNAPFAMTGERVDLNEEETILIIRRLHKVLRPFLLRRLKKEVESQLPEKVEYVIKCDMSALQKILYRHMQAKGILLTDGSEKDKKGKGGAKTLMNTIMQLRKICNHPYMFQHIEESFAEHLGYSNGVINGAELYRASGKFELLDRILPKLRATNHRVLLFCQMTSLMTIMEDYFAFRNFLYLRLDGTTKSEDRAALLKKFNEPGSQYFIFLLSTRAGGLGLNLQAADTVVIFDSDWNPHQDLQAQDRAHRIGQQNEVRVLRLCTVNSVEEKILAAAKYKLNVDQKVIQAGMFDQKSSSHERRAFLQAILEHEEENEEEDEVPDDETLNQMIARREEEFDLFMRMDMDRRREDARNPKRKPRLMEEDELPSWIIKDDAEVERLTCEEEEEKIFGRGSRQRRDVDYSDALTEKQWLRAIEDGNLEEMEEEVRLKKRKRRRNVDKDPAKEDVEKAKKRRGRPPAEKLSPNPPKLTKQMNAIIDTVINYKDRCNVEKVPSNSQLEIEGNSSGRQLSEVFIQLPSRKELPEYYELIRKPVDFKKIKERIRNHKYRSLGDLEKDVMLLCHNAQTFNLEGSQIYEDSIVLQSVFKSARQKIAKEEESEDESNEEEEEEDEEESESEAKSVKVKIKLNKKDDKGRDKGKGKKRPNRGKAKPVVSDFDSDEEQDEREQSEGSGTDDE

SMILES | cooperativity α (SMARCA4BD) [1] | EC50 (PBRM1BD5 [2]) | cooperativity α (PBRM1BD) (PBRM1BD5 [3]) | DC50 (SMARCA4; RKO (4 h), mean ± SD) | Dmax (SMARCA4; RKO, RKO (18 h), mean ± SD) | DC50 (SMARCA2; RKO (4 h), mean ± SD) | Dmax (SMARCA2; RKO, RKO (4 h), mean ± SD) | Dmax (SMARCA2; RKO, RKO (18 h), mean ± SD) | DC50 (SMARCA4; RKO (18 h), mean ± SD) | DC50 (SMARCA2; RKO (18 h), mean ± SD) | other results
Cc1ncsc1-c1ccc(C(CCC(C)CCN2CCC(c3ccc4c(c3)n(C3CCCC3)c3nc(=O)c5c(Br)cccc5n43)CC2)NC(=O)C2CC(O)CN2C(=O)C(NC(=O)C2(F)CC2)C(C)(C)C)cc1 (centres unmarked) [ACBI2] | 3.7 ± 0.8 | 5 ± 1 nM | 13.8 ± 1.5 | > 25000 nM | 67 ± 8% | 4 ± 1 nM | 71 ± 2% | 81 ± 7% |  |  | DC50 (SMARCA4; [4]): 32 nM; Bottom (% protein remaining, four-parameter fit) (SMARCA4; RKO, SM4): 39.28%; Top (% protein remaining, four-parameter fit) (SMARCA4; RKO, SM4): 143.4%; % protein remaining (SMARCA4; RKO, SM4, conc 9.54e-12 mol/l): 113.734% and 126.165%; % protein remaining (SMARCA4; RKO, SM4, conc 3.81e-11 mol/l): 121.614% and 148.911%; % protein remaining (SMARCA4; RKO, SM4, conc 1.53e-10 mol/l): 135.787% and 142.842%; % protein remaining (SMARCA4; RKO, SM4, conc 6.1e-10 mol/l): 143.182% and 145.479%; % protein remaining (SMARCA4; RKO, SM4, conc 2.44e-9 mol/l): 149.21% and 160.401%; % protein remaining (SMARCA4; RKO, SM4, conc 9.77e-9 mol/l): 171.8% and 162.178%; % protein remaining (SMARCA4; RKO, SM4, conc 3.91e-8 mol/l): 85.9345% and 100.013%; % protein remaining (SMARCA4; RKO, SM4, conc 1.56e-7 mol/l): 33.2702% and 37.8218%; % protein remaining (SMARCA4; RKO, SM4, conc 6.25e-7 mol/l): 30.6123% and 41.0571%; % protein remaining (SMARCA4; RKO, SM4, conc 2.5e-6 mol/l): 28.0108%; % protein remaining (SMARCA4; RKO, SM4, conc 1e-5 mol/l): 64.9119%; window of SMARCA2 over SMARCA4 degradation (SMARCA2; RKO cells): > 30 fold; DC50 (SMARCA2; [4]): 1 nM; Bottom (% protein remaining, four-parameter fit) (SMARCA2; RKO, SM2): 21.72%; HillSlope (protein remaining) (SMARCA2; RKO, SM2): -0.9367; Top (% protein remaining, four-parameter fit) (SMARCA2; RKO, SM2): 158.8%
O=c1nc2n(C3CCCC3)c3ccccc3n2c2cccc(Br)c12 [compound 1] |  | 131 ± 8 nM |  | > 25000 nM |  | > 25000 nM |  |  | > 25000 nM | > 25000 nM | 
Nc1cccc2c1c(=O)nc1n(C3CCCC3)c3ccccc3n21 [compound 2] |  | 959 ± 53 nM |  | > 25000 nM |  | > 25000 nM |  |  | > 25000 nM | > 25000 nM | 
CN1CCC(c2ccc3c(c2)n(C2CCCC2)c2nc(=O)c4c(Br)cccc4n32)CC1 [compound 3] |  | 31 ± 11 nM |  | > 25000 nM | 82 ± 32% | > 25000 nM |  |  | 11400 nM | 22300 nM | 
Cc1ncsc1-c1ccc([C@H](COC(C)CN2CCC(c3ccc4c(c3)n(C3CCCC3)c3nc(=O)c5c(Br)cccc5n43)CC2)NC(=O)[C@@H]2C[C@@H](O)CN2C(=O)[C@@H](NC(=O)C2(F)CC2)C(C)(C)C)cc1 (some centres unmarked) [compound 9] | 2.2 ± 0.2 | 7 ± 3 nM | 5.5 ± 1.7 | > 25000 nM | 88 ± 16% | 12 ± 4 nM | 72 ± 7% | 76 ± 10% | 1780 nM | 5 ± 1 nM | selectivity for SMARCA2 over SMARCA4 degradation (SMARCA2; Supplementary Data 2): remarkable selectivity
Cc1ncsc1-c1ccc([C@H](COC(C)CN2CCC(c3ccc4c(c3)n(C3CCCC3)c3nc(=O)c5c(Br)cccc5n43)CC2)NC(=O)[C@@H]2C[C@@H](O)CN2C(=O)[C@@H](NC(=O)C2(N(C)C)CC2)C(C)(C)C)cc1 (some centres unmarked) [compound 10] | 2.6 ± 0.8 | 8 ± 1 nM | 4.2 ± 0.4 | 83 ± 22 nM | 68 ± 15% | 6 ± 3 nM | 70 ± 2% | 82 ± 5% | 174 ± 72 nM | 3 ± 3 nM | Dmax (SMARCA4; RKO, RKO (4 h), mean ± SD): 34 ± 6%
Cc1ncsc1-c1ccc([C@H](CCCCCN2CCC(c3ccc4c(c3)n(C3CCCC3)c3nc(=O)c5c(Br)cccc5n43)CC2)NC(=O)[C@@H]2C[C@@H](O)CN2C(=O)[C@@H](NC(=O)C2(F)CC2)C(C)(C)C)cc1 [compound 11] | 4.2 ± 0.4 | 4 ± 1 nM | 11.9 ± 1.3 | 15 ± 9 nM | 78 ± 11% | 2 ± 1 nM | 73 ± 6% | 87 ± 2% | 12 ± 3 nM | 1 ± 0.1 nM | Dmax (SMARCA4; RKO, RKO (4 h), mean ± SD): 53 ± 16%; SMARCA2/4 selectivity improvement on linker elongation (compound 11 compared with compound 6) (SMARCA2; all-carbon linker series): two- to threefold
